Columns and labels:
[1] = test system: pentobarbital-induced sleep in mice; assay: Cannabinoid-induced potentiation of pentobarbital-induced sleep and effect of CB1 receptor antagonists; format: in vivo, ddY mice; conditions: for Prolongation of pentobarbital-induced sleep compared with vehicle-pretreated group (Veh + Veh): cannabinoid 10 mg/kg i.v., pentobarbital 40 mg/kg i.p. 15 min later, male ddY mice, n = 8
Protocol: For the pharmacological studies, cannabinoids and antagonists were suspended in saline containing 1% Tween 80. Sodium pentobarbital was dissolved in saline and injected intraperitoneally (i.p.; 40 mg/kg) for the mice. Male ddY mice weighing 20–25 g were housed in groups of 8. All animals were kept in a temperature-controlled (25 °C) environment with a 12-h light–dark cycle (lights on at 7:00 a.m.) and received food and water ad libitum. […] One percent Tween 80-saline solution was injected instead of cannabinoids or antagonists for the vehicle treated group as a control.

[2] = target: CB1 receptor (Mus musculus, UniProt P47746)
Chain of CB1 receptor (P47746 whole entry): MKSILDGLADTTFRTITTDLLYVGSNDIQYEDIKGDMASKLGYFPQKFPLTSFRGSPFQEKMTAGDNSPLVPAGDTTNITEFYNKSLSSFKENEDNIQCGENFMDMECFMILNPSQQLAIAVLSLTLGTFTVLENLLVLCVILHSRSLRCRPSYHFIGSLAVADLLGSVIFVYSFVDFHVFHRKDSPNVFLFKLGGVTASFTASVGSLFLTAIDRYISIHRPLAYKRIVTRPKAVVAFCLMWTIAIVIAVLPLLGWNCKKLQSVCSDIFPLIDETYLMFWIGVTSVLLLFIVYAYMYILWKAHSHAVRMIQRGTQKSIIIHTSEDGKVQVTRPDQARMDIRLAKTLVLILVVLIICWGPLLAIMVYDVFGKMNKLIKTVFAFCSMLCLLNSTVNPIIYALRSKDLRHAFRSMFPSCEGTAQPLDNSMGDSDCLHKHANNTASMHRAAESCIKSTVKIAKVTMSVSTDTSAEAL
Protocol: Crude synaptic membranes from ddY male mice brains were prepared according to the method of Zukin et al. [32] with a slight modification. Briefly, whole mice brains were homogenized in 15 volumes of ice-cold 0.32 M sucrose for 1 min with a Polytron homogenizer (Kinematica, Lucerne, Switzerland), followed by centrifugation at 1000 g for 10 min at 4 °C. The pellet was discarded and the supernatant was centrifuged at 20000g for 20 min at 4 °C. This pellet was homogenized for 15 s in 40 volumes of ice-cold distilled water and further dispersed with a Polytron homogenizer. The suspension was then centrifuged at 8000g for 20 min at 4 °C. The supernatant and the soft buffy upper layer of the pellet were carefully collected and combined. This fraction was then centrifuged at 48000g for 20 min at 4 °C.
A ligand binding assay for the cannabinoid receptor was performed according to the method of Devane et al. [34] and Compton et al. [16]. […] The filters were then placed in glass scintillation vials with 10 ml of Clearsol and the radioactivity was counted using a liquid scintillation counter (LSC-6100, Aloka, Tokyo, Japan). […] The inhibitory constant (Ki value) was calculated according to the method of Speth et al. [35].

Structure (SMILES): Cc1c(C(=O)NN2CCCCC2)nn(-c2ccc(Cl)cc2Cl)c1-c1ccc(I)cc1 [AM251, N-(piperidin-1-yl)-5-(4-iodophenyl)-1-(2,4-dichlorophenyl)-4-methyl-1H-pyrazole-3-carboxamide]
- Effect of antagonist on potentiating effect of ∆9-THC on pentobarbital-induced sleep, low dose ([1]; antagonist 2 mg/kg i.v., ∆9-THC 10 mg/kg i.v., pentobarbital 40 mg/kg i.p., mice): attenuated
- Effect of antagonist pretreatment on potentiation of pentobarbital-induced sleep by ∆9-THC ([1]; antagonist 2–10 mg/kg i.v. 10 min before ∆9-THC 10 mg/kg i.v., pentobarbital 40 mg/kg i.p., mice): decreased dose-dependently
- Effect of antagonist alone (antagonist + Veh) on pentobarbital-induced sleeping time ([1]; without ∆9-THC, pentobarbital 40 mg/kg i.p., mice): no change in pentobarbital-induced sleeping time

Structure (SMILES): C=C(C)[C@@H]1CCC(C)=C[C@H]1c1c(O)cc(CCCCC)cc1O [CBD, cannabidiol]
- Prolongation of pentobarbital-induced sleep compared with vehicle-pretreated group (Veh + Veh) [1]: 1.8 fold

Structure (SMILES): CCCC(C)C1(CC)C(=O)NC(=O)NC1=O (stereo not shown) [Pentobarbital, sodium pentobarbital]
- Specific [3H]CP55940 binding ([2]; pentobarbital 1 mM added to the reaction mixture, control 0.055 ± 0.002, N.S. vs control): 0.050 ± 0.003 ^N.S. pmol/mg protein
- Effect on specific [3H]CP55940 binding ([2]; pentobarbital 1 mM, mouse brain synaptic membrane): did not affect specific [^3H]CP55940 binding

Structure (SMILES): CCCCCc1cc(O)c2c(c1)OC(C)(C)[C@@H]1CCC(C)=CC21 (stereo partly shown) [∆^9-THC, ∆^9-tetrahydrocannabinol]
- Prolongation of pentobarbital-induced sleep compared with vehicle-pretreated group (Veh + Veh) [1]: 3.3 fold
